Data published in patent US20240165135A1, “COMPOSITIONS AND METHODS FOR THE TREATMENT OF CANCER” (The State of Israel, Ministry of Agriculture & Rural …, priority 2021, published 2024).

Columns and labels:
A172 GBM cells = assay: XTT cell viability assay on A172; format: cell-based, Human; settings: for effect of IA, AN or B alone on A172 cell viability: 10 μM; for IC50: Homo sapiens, A 172, 48 h
Description: Cell cultures—Human glioblastoma A172 (ATCC®CRL-1620™) was cultured in DMEM (01-055-1A, Biological Industries, Israel) and U87MG (U87; ATCC®HTB-14™) in EMEM (01-058-1A; Biological Industries, Israel). Both media were supplemented with 10% fetal bovine serum (FBS, 04-127-1A, Biological Industries, Israel), 1% Pen-Strep, 1% L-Glutamine and 0.02% plasmocin (i.e., complete medium). Cells were incubated at 37° C. in a humidified atmosphere containing 5% CO2—95% air. Serum free media (SFM) was composed of DMEM/F12 (01-170-1A; Biological Industries, Israel), including all the supplements above except for FBS. Neurosphere media for A172 was composed of SFM with 2% B-27; Neurosphere media for U87 was serum-free EMEM without B27. For Glioblastoma stem cells (GSCs) cultures all human materials were used in accordance with the policies of the Henry Ford Hospital Institutional Review Board. Generation of GSCs from fresh GBM specimens and their characterization have been recently described. The GSCs were plated in neurosphere medium (DMEM-F12 1:1, glutamine 10 mM, HEPES buffer 10 mM and sodium bicarbonate 0.025%) supplemented with EGF and bFGF (20 ng/mL).
(§1) Cell viability assays—Cells were seeded in 96-well plates at density of 2×10^4 per well (100 μL/well) in SFM (for A172) or complete medium (for U87) and were incubated at 37° C. overnight to allow attachment. The following day, cells were treated with plant extracts (n=3), fractions, or cannabinoid standards in volume of 100 μL/well at different concentrations. Solvents used as a vehicle control and doxorubicin was used as a positive control in all the biological assays. Where indicated, CB1 or CB2 inverse agonists, TRPV1 or TRPV2 antagonists or TRPA1 blocker were added along with the indicated treatments at a concentration of 10 μM/mL in complete medium. Treated cells were incubated for 48 h at 37° C. Subsequently, XTT reagents (2,3-bis(2-methoxy-4-nitro-5-sulfophenyl)-5-[(phenylamine)-carbonyl]-2H-tetrazolium inner salt) (20-300-1000; Biological Industries, Israel) were added to the cells for 2 hours at 37° C. in a humidified 5% CO2—95% air atmosphere. Absorbance was recorded by a Synergy H1 hybrid reader photometer (BioTek) at 490 nm with 650 nm of reference wavelength. Cell viability was estimated from the equation: […]
(§2) For dose response assays, data points were connected by non-linear regression lines of the sigmoidal dose-response relation. GraphPad Prism version 6.1 (www(dot)graphpad(dot)com/scientific-software/prism/, GraphPad Software Inc., San Diego, USA) was employed to produce dose-response curves and determination of IC50 values.

[1] = system: ovarian cancer cell line HTB75; assay: XTT cell viability assay on HTB75; format: cell-based; settings: for effect of IA, AN or B alone on HTB75 cell viability: 10 μM, 48 h
Description: FIGS. 17A-B show cell viability of HTB75 cells (FIG. 17A) following treatment with crude extract of cannabis strains DQ, Paris, GB-11, GB-14 and GB-18. Cell viability was determined by XTT assay as a function of live cell number. NT is the vehicle treated control (1% v/v methanol). Error bars indicate ±SE (n=3). […] (FIG. 17B) following treatment with C. sativa DQ crude extract at different concentrations for IC50 value calculation from 5P logistic curve fit using GraphPad Prism version 6.1. Error bars indicate ±SE (n=3).
FIGS. 18A-C show cell viability of HTB75 cells following treatment with DQ extract fractions F1-F8, and crude extract. FIG. 18A—Cell viability was determined by XTT assay as a function of live cell number. NT is the vehicle treated control (1% v/v methanol). Error bars indicate ±SE (n=3). […] (FIGS. 18B-C) Cell viability of HTB75 cells following treatment with C. sativa DQ fractions F5 and F7 at different concentrations for IC50 values calculation from 5P logistic curve fit using GraphPad Prism version 6.1. Error bars indicate ±SE (n=3).
as §1, §2

A172 cells = assay: Scratch-wound assay, A172 cell migration; format: cell-based, Human; settings: 36 hours; F4 20, F4-SM 11.5, F5 20, F5-SM 11.5, Doxo 0.5 μg/mL
Description: Scratch-wound assay—A172 cells were seeded in a 96-well plate at a density of 2×10^4 per well in 100 μL of complete medium. Following 24 hours, cells in each well were scratched perpendicularly across the center of the well with a 200 μL pipette tip to produce a cell-free area for investigating the ability of the cells to migrate and close the gap under different treatments. Immediately following scratching, 100 μL of treatment solution was added. Photos were taken by a CARL ZEISS inverted microscope coupled with a camera at 0, 14, 20, and 36 hours following scratching, and the gap area was measured using ImageJ (version 1.53a). The scratch area, indicated by cells migrated into the scratch was calculated as percent of scratch area at time x from time 0: […]

HTB75 cells [2] = assay: Combined treatments with chemotherapy drugs on HTB75 viability, Bliss-independence model; format: cell-based; settings: combination treatments
Description: FIGS. 23A-C are graphs showing synergistic interactions between fractions of some embodiments of the invention with (FIG. 23A) cisplatin, (FIG. 23B) gemcitabine and (FIG. 23C) niraparib on cell viability of HTB75 cells following combined treatments. Synergy of cytotoxic activity calculated based on Bliss-independence drug interaction model. Synergy is apparent when the experimental (observed) value of cell survival inhibition is higher than the calculated (expected) value. Values of delta of observed minus expected values, calculated based on Bliss model are shown in the Y axis.

[3] = given orally per mouse; reference [2]; cited from earlier work
MAPK4 gene = assay: Quantitative PCR of MAPK4 gene in HTB75 cell line; format: cell-based; settings: 2 h, relative to control
Description: FIG. 24 is a graph showing quantitative PCR-based determination of the RNA steady state level in HTB75 cell line of MAPK4 gene, after treatment with niraparib, F5, F7 or combination of niraparib+F5 or niraparib+F7, for 2 h relative to control. Gene transcript values were determined by quantitative PCR as a ratio between the target gene versus a reference gene (Hypoxanthine Phosphoribosyltransferasel; HPRT1; geneID 3251). Values were calculated relative to the average expression of target genes in treated versus control using the 2ΔΔCt method. Control (methanol) treatment served as solvent (vehicle) control; Error bars indicate ±s.e.m. (n=3).

HTB75 cells [4] = assay: Apoptosis/necrosis, annexin V-FITC and PI FACS, HTB75; format: cell-based; settings: 48 h; niraparib 5.1, F5 19.1, F7 19.4, F5-SM 17.4, F7-SM 16.3 μg/mL; vehicle control 17.3%
Description: (§3) 10^4 cells were analyzed per treatment. Control is vehicle control (1.5% v/v methanol). The treated cells were harvested and analyzed in FACS following annexin V-FITC and PI staining. Error bars indicate ±SE (n=3).
Apoptosis assay—Apoptosis for the A172 cell line was assessed using MEBCYTO Apoptosis Kit with Annexin V-FITC and PI (MBL, Enco, 4700). Staining was carried out according to manufacturer's instructions. In brief, cells were seeded in a 6-well TC plate, at a density of 4×10^5 cells in 2 mL of SFM per well. 24 hours following seeding, cells were treated with the indicated treatments in complete medium for 48 hours. Following incubation, cells were harvested using trypsin and centrifuged for 5 minutes at 1600 rpm. Cell pellets were resuspended and washed twice with 1 mL of PBS. The cells in each sample were resuspended in 85 μL of Annexin binding buffer. Cells were stained using 10 μL of Annexin V-FITC solution and 5 μL of propidium iodide (PI) working solution followed by incubation in the dark at room temperature for 15 minutes. Then 400 μL of Annexin V binding buffer was added to each tube and flow cytometry was performed using a Gallios flow cytometer (FACS). Cells were considered apoptotic if they were Annexin V+/PI− (early apoptosis) or Annexin V+/PI+ (late apoptosis). Live cells were defined as Annexin V−/PI−, and Annexin V−/PI+ as necrosis.

HTB75 cells [5] = assay: Cell cycle FACS, HTB75; format: cell-based; settings: 24 h; F5-SM 17.4 μg/mL, niraparib 4 μg/mL; control 21.4%
Description: as §3
Cell cycle analysis—A172 cells were seeded in 6-well TC plate at a concentration of 4×10^5 cells in 2 mL of SFM per well. Following 24 hours incubation, cells were treated with indicated treatments in complete medium for 24 hours. Methanol and doxorubicin were used as negative and positive controls, respectively. Cells were harvested and centrifuged for 5 minutes at 1600 rpm. Cell pellets were washed once with 1 mL of PBS and fixed with 70% cold ethanol overnight at −20° C. The fixed cells were washed twice with 1 mL of PBS and stained with 250 μL of PI solution (50 μg/mL) containing RNase A (100 μg/mL) for 30 minutes in dark conditions. 250 μL PBS was added to each tube and the cells were analyzed using FACS.

Compound: Cc1c(C(=O)NN2CCCCC2)nn(-c2ccc(Cl)cc2Cl)c1-c1ccc(I)cc1 [AM251]
- effect of IA, AN or B alone on A172 cell viability (A172 GBM cells; 48 hours): reduced A172 cell viability to a minor, non-significant extent
- effect of IA, AN or B alone on HTB75 cell viability [1]: did not affect HTB75 cell viability

Compound: CCCCCc1cc(O)c(C/C=C(\C)CCC=C(C)C)c(O)c1 [CBG, cannabigerol]
- IC50 (A172 GBM cells): 5 µg/mL
- inhibition of cell migration in comparison to the vehicle control (A172 cells): 2.8%

Compound: Nc1ccn([C@@H]2O[C@H](CO)[C@@H](O)C2(F)F)c(=O)n1 [Gemcitabine]
- synergy of gemcitabine with F5, F7, F5-SM, F7-SM (HTB75 cells [2]): no considerable synergy

Compound: CCCCCc1cc(O)c2c(c1)OC(C)(C)[C@@H]1CCC(C)=C[C@@H]21 [THC, Tetrahydrocannabinol]
- IC50 (A172 GBM cells): 4.83 µg/mL
- effectiveness of phytocannabinoid combinations on HTB75 viability ([1]; fixed total concentration 13 and 15 μg/mL, ratios as in F5 or F7): less effective than various combinations of THC, CBC, CBG and CBN
- inhibition of cell migration in comparison to the vehicle control (A172 cells): 12.5%

Compound: Cn1nnc2c(C(N)=O)ncn2c1=O [TMZ, temozolomide]
- effect on A172 viability / cell death (A172 GBM cells; up to 50 μg/mL, 48 hours): no effect

Compound: CC(C)c1ccc(NC(=O)Cn2cnc3c2c(=O)n(C)c(=O)n3C)cc1 [TRPA1 B, HC-030031]
- effect of IA, AN or B alone on A172 cell viability (A172 GBM cells; 48 hours): reduced A172 cell viability to a minor, non-significant extent
- effect of IA, AN or B alone on HTB75 cell viability [1]: did not affect HTB75 cell viability

Compound: COc1cccc(NC(=O)/C=C/c2ccc(Cl)cc2)c1 [TRPV1 AN, SB-366791]
- effect of IA, AN or B alone on A172 cell viability (A172 GBM cells; 48 hours): reduced A172 cell viability to a minor, non-significant extent
- effect of IA, AN or B alone on HTB75 cell viability [1]: did not affect HTB75 cell viability

Compound: CO [methanol]
- LD50 [3]: ~7300 mg/kg

Compound: NC(=O)c1cccc2cn(-c3ccc([C@@H]4CCCNC4)cc3)nc12 [niraparib]
- MAPK4 expression (MAPK4 gene): reduced
- cell apoptosis (HTB75 cells [4]): 64.1%
- percentage of cells in S phase (HTB75 cells [5]): 48.3%

Compound: SR144528 [CB2 IA]
- effect of IA, AN or B alone on A172 cell viability (A172 GBM cells; 48 hours): reduced A172 cell viability to a minor, non-significant extent
- effect of IA, AN or B alone on HTB75 cell viability [1]: did not affect HTB75 cell viability
